The values that follow are results of earlier work, collected in patent publication US20240352056A1, “Improved methods for production of cyclic guanosine-monophosphate analogues” (Mireca Medicines GmbH, priority 2021, published 2024).

Series [1] has as its system cGMP-dependent protein kinase.
The test system of series [2] is cAMP-dependent protein kinase.
The subject of series [3] is rd1 and rd2 photoreceptors. The settings on record: rd1 and rd2 mouse retinitis pigmentosa models, in vitro and in vivo.

For `O=c1c2nc(Br)n([C@@H]3O[C@@H]4CO[P@@](O)(=S)O[C@H]4[C@H]3O)c2nc2[nH]c(-c3ccccc3)cn12` [1a, Triethylammonium Rp-8-Bromo-β-phenyl-1,N2-ethenoguanosine-3′, 5′-cyclic monophosphorothioate], the “neuroprotective effects in vivo” value with photoreceptors is “potent neuroprotective effects in vivo”. Further, the “activity towards PKG (agonist or antagonist)” value with PKG was “antagonistic activity towards PKG”.

`Nc1nc2c(nc(Cl)n2[C@@H]2O[C@@H]3CO[P@@](O)(=S)O[C@H]3[C@H]2O)c(=O)[nH]1` [(Rp)-8-Cl-cGMPS, 8-chloroguanosine 3′, 5′-monophosphorothioate]: in series [1], the “antagonism of the activation of the cGMP-dependent protein kinase” value is listed as “antagonized the activation of the cGMP-dependent protein kinase”; the “binding to cGMP-dependent protein kinase and stimulation of its phosphotransferase activity” value (shortened to “binding”) was “bound to the enzyme without stimulation of its activity”; the “selectivity for cGMP-dependent over cAMP-dependent protein kinase” value was “rather selective inhibitor of the cGMP-dependent protein kinase”. In addition, the “antagonism / inhibition of cAMP-dependent protein kinase” value in series [2] is “weak inhibitor”.

With `Nc1nc2c(ncn2[C@@H]2O[C@@H]3COP(O)(=S)O[C@H]3[C@H]2O)c(=O)[nH]1` (stereo partly drawn) [(Rp)-cGMPS, guanosine 3′, 5′-monophosphorothioate], in series [1], the “antagonism of the activation of the cGMP-dependent protein kinase” value is given as “antagonized the activation of the cGMP-dependent protein kinase”; the “binding” value is “bound to the enzyme without stimulation of its activity”. Besides, the “antagonism / inhibition of cAMP-dependent protein kinase” value in series [2] is reported as “antagonized the activation of cAMP-dependent protein kinase”.

On to `Nc1nc2c(nc(Cl)n2[C@@H]2O[C@@H]3CO[P@@](O)(=S)O[C@H]3[C@H]2O)c(=O)[nH]1` [(Sp)-8-Cl-cGMPS, 8-chloroguanosine 3′, 5′-monophosphorothioate], for which the “binding” value in series [1] is “stimulated its phosphotransferase activity”.

For `Nc1nc2c(ncn2[C@@H]2O[C@@H]3COP(O)(=S)O[C@H]3[C@H]2O)c(=O)[nH]1` (stereo partly drawn) [(Sp)-cGMPS, guanosine 3′, 5′-monophosphorothioate], the “binding” value in series [1] is given as “stimulated its phosphotransferase activity”.

For `Nc1nc2c(nc(Br)n2[C@@H]2O[C@@H]3COP(O)(=S)O[C@H]3[C@H]2O)c(=O)[nH]1` (stereo partly drawn) [Rp-8-Br-cGMPS], the protection of photoreceptors result in series [3] was “protection of rd1 and rd2 photoreceptors”.
